Reference: PubChem BioAssay (NCI)
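Cells were grown in 96-well plates and exposed to each compound for 48 hours at five concentrations; endpoints were interpolated linearly between bracketing concentrations, or set to the highest concentration if not reached. GI50 = concentration required for 50% inhibition of growth. TGI: total growth inhibition.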 Square brackets hold non-standard residues; d marks the D form. Peptide text beside a SMILES is read from it. * marks the point of attachment. ξ: configuration not given here. Boc = CC(C)(C)OC(=O)*; ξV = CC(C)C(N)C(=O)O; OBn = c1ccc(CO*)cc1

What was measured:
Assay in all cases: growth of human tumour cells (NCI), 48 h
786-0 renal = test system: 786-0 renal
A498 renal = test system: A498 renal
A549 NSCLC = test system: A549 NSCLC
ACHN renal = test system: ACHN renal
BT-549 breast = test system: BT-549 breast
CAKI-1 renal = test system: CAKI-1 renal
CCRF-CEM leukemia = test system: CCRF-CEM leukemia
COLO 205 colon = test system: COLO 205 colon
DU-145 prostate = test system: DU-145 prostate
HCC-2998 colon = test system: HCC-2998 colon
HCT-116 colon = test system: HCT-116 colon
HCT-15 colon = test system: HCT-15 colon
HL-60(TB) leukemia = test system: HL-60(TB) leukemia
HOP-62 NSCLC = test system: HOP-62 NSCLC
HS 578T breast = test system: HS 578T breast
HT29 colon = test system: HT29 colon
IGROV1 ovarian = test system: IGROV1 ovarian
K-562 leukemia = test system: K-562 leukemia
KM12 colon = test system: KM12 colon
LOX IMVI melanoma = test system: LOX IMVI melanoma
M14 melanoma = test system: M14 melanoma
MALME-3M melanoma = test system: MALME-3M melanoma
MCF7 breast = test system: MCF7 breast
MDA-MB-231 breast = test system: MDA-MB-231 breast
MDA-MB-435 = test system: MDA-MB-435
MOLT-4 leukemia = test system: MOLT-4 leukemia
NCI-H226 lung = test system: NCI-H226 lung
NCI-H23 lung = test system: NCI-H23 lung
NCI-H460 lung = test system: NCI-H460 lung
NCI-H522 lung = test system: NCI-H522 lung
NCI/ADR-RES ovarian = test system: NCI/ADR-RES ovarian
OVCAR-3 ovarian = test system: OVCAR-3 ovarian
OVCAR-4 ovarian = test system: OVCAR-4 ovarian
OVCAR-5 ovarian = test system: OVCAR-5 ovarian
OVCAR-8 ovarian = test system: OVCAR-8 ovarian
PC-3 prostate = test system: PC-3 prostate
RPMI-8226 leukemia = test system: RPMI-8226 leukemia
RXF 393 renal = test system: RXF 393 renal
SF-268 CNS = test system: SF-268 CNS
SF-295 CNS = test system: SF-295 CNS
SF-539 CNS = test system: SF-539 CNS
SK-MEL-2 melanoma = test system: SK-MEL-2 melanoma
SK-MEL-28 melanoma = test system: SK-MEL-28 melanoma
SK-MEL-5 melanoma = test system: SK-MEL-5 melanoma
SK-OV-3 ovarian = test system: SK-OV-3 ovarian
SN12C renal = test system: SN12C renal
SNB-19 CNS = test system: SNB-19 CNS
SNB-75 CNS = test system: SNB-75 CNS
SR leukemia = test system: SR leukemia
SW-620 colon = test system: SW-620 colon
T-47D breast = test system: T-47D breast
TK-10 renal = test system: TK-10 renal
U251 CNS = test system: U251 CNS
UACC-257 melanoma = test system: UACC-257 melanoma
UACC-62 melanoma = test system: UACC-62 melanoma
UO-31 renal = test system: UO-31 renal

## Nc1ccccc1SC(CC(=O)c1ccccc1)c1cccc([N+](=O)[O-])c1 (centres undefined)
786-0 renal
  GI50: 18.9 µM
  TGI: 33.3 µM
A498 renal
  GI50: 16.6 µM
  TGI: 30.9 µM
A549 NSCLC
  GI50: 18.6 µM
  TGI: 36.7 µM
ACHN renal
  GI50: 14.5 µM
  TGI: 27.9 µM
BT-549 breast
  GI50: 17 µM
  TGI: 30.9 µM
CAKI-1 renal
  GI50: 16.4 µM
  TGI: 30.4 µM
CCRF-CEM leukemia
  GI50: 16 µM
  TGI: 50.8 µM
COLO 205 colon
  GI50: 19.1 µM
  TGI: 34.7 µM
DU-145 prostate
  GI50: 14.7 µM
  TGI: 28 µM
HCC-2998 colon
  GI50: 17.3 µM
  TGI: 31.3 µM
HCT-116 colon
  GI50: 1.96 µM
  TGI: 3.97 µM
HCT-15 colon
  GI50: 11.5 µM
  TGI: 28.4 µM
HL-60(TB) leukemia
  GI50: 17.3 µM
  TGI: 40.1 µM
HOP-62 NSCLC
  GI50: 15.5 µM
  TGI: 28.9 µM
HS 578T breast
  GI50: 21.5 µM
  TGI: 57.3 µM
HT29 colon
  GI50: 5.79 µM
  TGI: 23 µM
IGROV1 ovarian
  GI50: 13.1 µM
  TGI: 28.1 µM
K-562 leukemia
  GI50: 3.72 µM
  TGI: 13.6 µM
KM12 colon
  GI50: 6.24 µM
  TGI: 19.3 µM
LOX IMVI melanoma
  GI50: 1.99 µM
  TGI: 4.07 µM
M14 melanoma
  GI50: 17.3 µM
  TGI: 32.5 µM
MALME-3M melanoma
  GI50: 16.9 µM
  TGI: 31.3 µM
MCF7 breast
  GI50: 2.6 µM
  TGI: 18 µM
MDA-MB-231 breast
  GI50: 14.4 µM
  TGI: 28.3 µM
MDA-MB-435
  GI50: 16.3 µM
  TGI: 30.4 µM
MOLT-4 leukemia
  GI50: 17.6 µM
  TGI: 50.5 µM
NCI-H226 lung
  GI50: 17.1 µM
  TGI: 35.2 µM
NCI-H23 lung
  GI50: 17.6 µM
  TGI: 32.6 µM
NCI-H460 lung
  GI50: 19.4 µM
  TGI: 38.8 µM
NCI-H522 lung
  GI50: 15 µM
  TGI: 29.5 µM
NCI/ADR-RES ovarian
  GI50: 20.4 µM
  TGI: 42.8 µM
OVCAR-3 ovarian
  GI50: 12.8 µM
  TGI: 25.8 µM
OVCAR-4 ovarian
  GI50: 14.6 µM
  TGI: 27.8 µM
OVCAR-5 ovarian
  GI50: 17.4 µM
  TGI: 32.2 µM
OVCAR-8 ovarian
  GI50: 14.9 µM
  TGI: 28.5 µM
PC-3 prostate
  GI50: 12.5 µM
  TGI: 25.5 µM
RPMI-8226 leukemia
  GI50: 3.89 µM
  TGI: 19 µM
RXF 393 renal
  GI50: 15 µM
  TGI: 28.6 µM
SF-268 CNS
  GI50: 16.3 µM
  TGI: 31.3 µM
SF-295 CNS
  GI50: 16.2 µM
  TGI: 30.3 µM
SF-539 CNS
  GI50: 16.8 µM
  TGI: 30.7 µM
SK-MEL-2 melanoma
  GI50: 20.6 µM
  TGI: 35.8 µM
SK-MEL-28 melanoma
  GI50: 16.6 µM
  TGI: 30.3 µM
SK-MEL-5 melanoma
  GI50: 15.4 µM
  TGI: 29 µM
SK-OV-3 ovarian
  GI50: 18.1 µM
  TGI: 32 µM
SN12C renal
  GI50: 13.9 µM
  TGI: 26.9 µM
SNB-19 CNS
  GI50: 14.3 µM
  TGI: 27.4 µM
SNB-75 CNS
  GI50: 13.6 µM
  TGI: 26.7 µM
SR leukemia
  GI50: 2.55 µM
  TGI: 6.46 µM
SW-620 colon
  GI50: 3.03 µM
  TGI: 12.2 µM
T-47D breast
  GI50: 12.1 µM
  TGI: 36.2 µM
TK-10 renal
  GI50: 20.7 µM
  TGI: 35.1 µM
U251 CNS
  GI50: 7.51 µM
  TGI: 20.7 µM
UACC-257 melanoma
  GI50: 17.1 µM
  TGI: 31.1 µM
UACC-62 melanoma
  GI50: 13.8 µM
  TGI: 26.9 µM
UO-31 renal
  GI50: 3.11 µM
  TGI: 20.5 µM

## CC(C)C(NC(=O)CNC(=O)OC(C)(C)C)C(=O)OCc1ccccc1 (stereo not drawn) (Boc-Gly-[ξV]-OBn)
HL-60(TB) leukemia
  GI50: 86.5 µg/mL
K-562 leukemia
  GI50: 30.4 µg/mL
